Test results reported in ChEMBL document CHEMBL6127057, “Design and synthesis of Thieno[3, 2-b]pyridinone derivatives exhibiting potent activities against Mycobacterium tuberculosis in vivo by targeting Enoyl-ACP reductase” (Eur J Med Chem, 2024).
In brackets after ≈: the same amount, converted by molar mass. Activity calls are given as the source filed them. The rule behind the calls is not given here.

Tests used:
[1] = AUC (0 to infinity) in male Sprague-Dawley rat at 100 mg/kg, po measured upto 240 hrs by LC/MS/MS analysis; format: ADME, organism-based; details: in vivo
[2] = system: Mycobacterium tuberculosis; assay: Antimycobacterial activity against Mycobacterium tuberculosis H37Rv infected in female BALB/c mouse assessed as reduction in relative light unit in lung at 300 mg/kg, po administered once daily for 5 days; format: functional; details: time 5 day
[3] = system: Mycolicibacterium smegmatis; assay: Antimycobacterial activity against recombinant Mycobacterium smegmatis transfected with pMV261-Mtb InhA assessed as inhibition of bacterial growth at 0.25 to 64 microg/ml incubated for 3 days; format: functional; details: 72 h, dose 0.25-64 µg/ml, time 3 day
[4] = system: Mycobacterium tuberculosis; assay: Antimycobacterial activity against Mycobacterium tuberculosis UAlRv infection model using mouse RAW264.7 cells assessed as inhibition of bacterial growth incubated for 72 hrs; format: functional
[5] = system: Mycobacterium tuberculosis; assay: Antimycobacterial activity against Mycobacterium tuberculosis H37Rv infected in female BALB/c mouse assessed as reduction in relative light unit in lung at 30 mg/kg, po in presence of Rifampicin administered once daily for 5 days; format: functional; details: time 5 day
Staphylococcus aureus = assay: Antibacterial activity against Staphylococcus aureus assessed as bacterial growth inhibition incubated for 24 hrs; format: functional
L02 = assay: Cytotoxicity against human L02 cells incubated for 48 hrs by CCK-8 assay; format: toxicity, cell-based; details: l02, 48 h
[6] = Tmax in male Sprague-Dawley rat at 100 mg/kg, po measured upto 240 hrs by LC/MS/MS analysis; format: ADME, organism-based; details: in vivo
Escherichia coli = assay: Antibacterial activity against Escherichia coli assessed as bacterial growth inhibition incubated for 24 hrs; format: functional
[7] = system: Mycobacterium tuberculosis; assay: Antimycobacterial activity against Mycobacterium tuberculosis H37Rv infected in female BALB/c mouse assessed as reduction in relative light unit in lung at 100 mg/kg, po administered once daily for 5 days; format: functional; details: time 5 day
[8] = AUC (0 to infinity) in male Sprague-Dawley rat at 1 mg/kg, iv measured upto 240 hrs by LC/MS/MS analysis; format: ADME, organism-based; details: in vivo
[9] = Cmax in male Sprague-Dawley rat at 100 mg/kg, po measured upto 240 hrs by LC/MS/MS analysis; format: ADME, organism-based; details: in vivo
[10] = system: Mycobacterium tuberculosis; assay: Antimycobacterial activity against Mycobacterium tuberculosis H37Rv infected in female BALB/c mouse assessed as reduction in relative light unit in spleen at 300 mg/kg, po administered once daily for 5 days; format: functional; details: time 5 day
[11] = system: Mycobacterium tuberculosis; assay: Antimycobacterial activity against wild-type Mycobacterium tuberculosis H37Rv incubated for 4 weeks by MABA assay; format: functional; details: 672 h
[12] = Half life in male Sprague-Dawley rat at 100 mg/kg, po measured upto 240 hrs by LC/MS/MS analysis; format: ADME, organism-based; details: in vivo
Candida albicans = assay: Antifungal activity against Candida albicans assessed as fungal growth inhibition incubated for 48 hrs; format: functional
[13] = system: Mycobacterium tuberculosis; assay: Antimycobacterial activity against Mycobacterium tuberculosis H37Rv infected in female BALB/c mouse assessed as reduction in relative light unit in lung at 100 mg/kg, po in presence of Rifampicin administered once daily for 5 days; format: functional; details: time 5 day
[14] = Toxicity in BALB/c mouse infected with Mycobacterium tuberculosis H37Rv assessed as optimal condition at 300 mg/kg, po administered once daily for 5 days; format: organism-based; details: in vivo, 120 h, time 5 day
[15] = Oral bioavailability in male Sprague-Dawley rat at 100 mg/kg measured upto 240 hrs by LC/MS/MS analysis; format: ADME, organism-based; details: in vivo
[16] = system: Mycobacterium tuberculosis; assay: Antimycobacterial activity against Mycobacterium tuberculosis H37Rv infected in female BALB/c mouse assessed as reduction in relative light unit in lung, po administered once daily for 5 days; format: functional, organism-based; details: dose 30-300 mg/kg, time 5.0 day
[17] = system: Mycobacterium tuberculosis; assay: Antimycobacterial activity against marker-free avirulent autoluminescent Mycobacterium tuberculosis H37Ra assessed as inhibition of relative light unit relative to control; format: functional
[18] = target: T1, Enoyl-[acyl-carrier-protein] reductase [NADH] (Mycobacterium tuberculosis) (UniProt P9WGR1); assay: Inhibition of C-terminal his-tagged Mycobacterium tuberculosis InhA extracted from Escherichia coli BL21(DE3) cells using trans-2-dodecenoyl-coenzyme A as substrate at 25 microM by UV based analysis
T1 sequence (whole entry): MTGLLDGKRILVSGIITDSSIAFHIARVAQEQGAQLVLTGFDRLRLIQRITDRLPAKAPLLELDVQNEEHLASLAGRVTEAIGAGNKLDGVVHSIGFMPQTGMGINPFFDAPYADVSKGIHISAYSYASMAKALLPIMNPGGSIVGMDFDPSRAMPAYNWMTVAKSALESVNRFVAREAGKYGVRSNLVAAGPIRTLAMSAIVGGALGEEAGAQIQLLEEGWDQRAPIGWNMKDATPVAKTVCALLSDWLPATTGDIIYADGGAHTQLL

[19] = Half life in male Sprague-Dawley rat at 1 mg/kg, iv measured upto 240 hrs by LC/MS/MS analysis; format: ADME, organism-based; details: in vivo
[20] = system: Mycolicibacterium smegmatis; assay: Antimycobacterial activity against recombinant Mycobacterium smegmatis transfected with pMV261 assessed as inhibition of bacterial growth at 0.25 to 64 microg/ml incubated for 3 days; format: functional; details: 72 h, dose 0.25-64 µg/ml, time 3 day
Cryptococcus neoformans = assay: Antifungal activity against Cryptococcus neoformans assessed as fungal growth inhibition incubated for 72 hrs; format: functional
[21] = system: Mycolicibacterium smegmatis; assay: Selectivity ratio of MIC for recombinant Mycobacterium smegmatis transfected with pMV261-Mtb InhA to MIC for recombinant Mycobacterium smegmatis transfected with pMV261; format: functional
[22] = system: Mycobacterium tuberculosis; assay: Antimycobacterial activity against Mycobacterium tuberculosis H37Rv assessed as inhibition of growth by kill kinetic analysis; format: functional

Compound: Cc1cccc(-c2c(O)c3scc(Br)c3[nH]c2=O)c1
- AUC [1]: 19700 µM·h
- Activity [2]: 0.64 log10RLU
- MIC [3]: 4 µg/mL
- MIC90 [4]: 1 µg/mL (≈ 2.97 µM)
- Activity [5]: 0.29 log10RLU
- MIC99 (Staphylococcus aureus): > 64 µg/mL
- Activity (L02): Toxic
- Tmax [6]: 6 h
- MIC99 (Escherichia coli): > 64 µg/mL
- Activity [7]: 4.93 log10RLU
- AUC [8]: 1200 µM·h
- Cmax [9]: 283 µM
- Activity [10]: 0.37 log10RLU
- MIC [11]: 0.5 µg/mL (≈ 1.49 µM)
- half-life [12]: 48 h
- MIC80 (Candida albicans): > 64 µg/mL
- Activity [13]: 5.31 log10RLU
- Activity [14]: Non-Toxic
- bioavailability [15]: 16.4%
- Activity [16]: Dose-Dependent Effect
- MIC90 [17]: 0.5 µg/mL (≈ 1.49 µM)
- inhibition [18]: Active
- half-life [19]: 35.6 h
- MIC [20]: 1 µg/mL
- MIC80 (Cryptococcus neoformans): > 64 µg/mL
- Selectivity ratio [21]: 2

Compound: CC1(C)CCC(Cc2cc(O)c(-c3ccccc3)c(=O)[nH]2)CC1
- MIC50 [22]: 0.05 µM (≈ 0.0156 µg/mL)

Compound: O=c1[nH]c2c(Br)csc2c(O)c1-c1ccc(C(F)(F)F)cc1
- MIC90 [17]: 16 µg/mL (≈ 41 µM)

Compound: N#Cc1ccc(-c2c(O)c3scc(Br)c3[nH]c2=O)cc1
- MIC90 [17]: 32 µg/mL (≈ 92.2 µM)

Compound: Cc1ccc(C)c(-c2c(O)c3scc(Br)c3[nH]c2=O)c1
- MIC90 [17]: 32 µg/mL (≈ 91.4 µM)

Compound: O=c1[nH]c2c(Br)csc2c(O)c1-c1cccs1
- MIC90 [17]: 4 µg/mL (≈ 12.2 µM)

Compound: O=c1[nH]c2c(Br)csc2c(O)c1-c1cccc(Cl)c1
- MIC90 [4]: 1 µg/mL (≈ 2.8 µM)
- MIC99 (Staphylococcus aureus): > 64 µg/mL
- Activity (L02): Toxic
- MIC99 (Escherichia coli): > 64 µg/mL
- MIC90 [17]: 0.5 µg/mL (≈ 1.4 µM)
- inhibition [18]: Active

Compound: COc1cccc(-c2c(O)c3scc(Br)c3[nH]c2=O)c1
- MIC90 [17]: 8 µg/mL (≈ 22.7 µM)

Compound: CC1(C)S[C@@H]2[C@H](NC(=O)[C@H](N)c3ccc(O)cc3)C(=O)N2[C@H]1C(=O)O [AMOXICILLIN]
- MIC99 (Staphylococcus aureus): 0.5 µg/mL (≈ 1.37 µM)
- MIC99 (Escherichia coli): 0.05 µg/mL (≈ 0.137 µM)

Compound: Cc1ccc(-c2c(O)c3scc(Br)c3[nH]c2=O)cc1
- MIC90 [17]: 32 µg/mL (≈ 95.2 µM)

Compound: C[C@@H]1[C@H](O)[C@@H](C)/C=C/C=C/C=C/C=C/C=C/C=C/C=C/[C@H](O[C@@H]2O[C@H](C)[C@@H](O)[C@H](N)[C@@H]2O)C[C@@H]2O[C@](O)(C[C@@H](O)C[C@@H](O)[C@H](O)CC[C@@H](O)C[C@@H](O)CC(=O)O[C@H]1C)C[C@H](O)[C@H]2C(=O)O [AMPHOTERICIN B]
- MIC80 (Candida albicans): 0.125 µg/mL (≈ 0.135 µM)
- MIC80 (Cryptococcus neoformans): 0.5 µg/mL (≈ 0.541 µM)

Compound: Cc1ccccc1-c1c(O)c2scc(Br)c2[nH]c1=O
- MIC99 (Staphylococcus aureus): > 64 µg/mL
- MIC99 (Escherichia coli): > 64 µg/mL
- MIC80 (Candida albicans): > 64 µg/mL
- MIC90 [17]: 0.5 µg/mL (≈ 1.49 µM)
- MIC80 (Cryptococcus neoformans): > 64 µg/mL

Compound: O=c1[nH]c2c(Br)csc2c(O)c1-c1ccco1
- MIC90 [17]: 8 µg/mL (≈ 25.6 µM)

Compound: O=c1[nH]c2c(Br)csc2c(O)c1-c1ccccc1
- MIC99 (Staphylococcus aureus): > 64 µg/mL
- MIC99 (Escherichia coli): > 64 µg/mL
- MIC90 [17]: 0.5 µg/mL (≈ 1.55 µM)

Compound: O=c1[nH]c2c(Br)csc2c(O)c1-c1ccccc1Cl
- MIC90 [17]: 1 µg/mL (≈ 2.8 µM)

Compound: O=c1[nH]c2c(Br)csc2c(O)c1-c1ccccc1F
- MIC99 (Staphylococcus aureus): > 64 µg/mL
- MIC99 (Escherichia coli): > 64 µg/mL
- MIC80 (Candida albicans): > 64 µg/mL
- MIC90 [17]: 0.5 µg/mL (≈ 1.47 µM)
- MIC80 (Cryptococcus neoformans): > 64 µg/mL

Compound: O=c1[nH]c2c(Br)csc2c(O)c1-c1cccc(OC(F)(F)F)c1
- MIC90 [17]: > 64 µg/mL

Compound: O=c1[nH]c2c(Br)csc2c(O)c1-c1cccc(F)c1
- MIC99 (Staphylococcus aureus): > 64 µg/mL
- MIC99 (Escherichia coli): > 64 µg/mL
- MIC80 (Candida albicans): > 64 µg/mL
- MIC90 [17]: 0.5 µg/mL (≈ 1.47 µM)
- MIC80 (Cryptococcus neoformans): > 64 µg/mL

Compound: O=c1[nH]c2c(Br)csc2c(O)c1-c1cccc(Br)c1
- MIC90 [17]: 16 µg/mL (≈ 39.9 µM)

Compound: O=c1[nH]c2c(Br)csc2c(O)c1-c1ccc(Cl)cc1Cl
- MIC90 [17]: > 64 µg/mL

Compound: CC(C)(C)c1ccc(-c2c(O)c3scc(Br)c3[nH]c2=O)cc1
- MIC90 [17]: > 64 µg/mL

Compound: O=c1[nH]c2c(Br)csc2c(O)c1-c1ccc2ccccc2c1
- MIC90 [17]: 16 µg/mL (≈ 43 µM)

Compound: Cc1csc2c(O)c(-c3ccccc3)c(=O)[nH]c12
- MIC90 [17]: 4 µg/mL (≈ 15.5 µM)

Compound: O=c1[nH]c2c(Br)csc2c(O)c1-c1cccc([N+](=O)[O-])c1
- MIC90 [17]: > 64 µg/mL

Compound: O=c1[nH]c2c(Br)csc2c(O)c1-c1ccc([N+](=O)[O-])cc1
- MIC90 [17]: 32 µg/mL (≈ 87.2 µM)

Compound: CO[C@H]1/C=C/O[C@@]2(C)Oc3c(C)c(O)c4c(O)c(c(/C=N/N5CCN(C)CC5)c(O)c4c3C2=O)NC(=O)/C(C)=C\C=C\[C@H](C)[C@H](O)[C@@H](C)[C@@H](O)[C@@H](C)[C@H](OC(C)=O)[C@@H]1C [RIFAMPIN]
- MIC [11]: 0.125 µg/mL (≈ 0.152 µM)
- MIC90 [17]: 0.25 µg/mL (≈ 0.304 µM)

Compound: O=c1[nH]c2c(Br)csc2c(O)c1-c1ccc(F)cc1
- MIC90 [17]: 2 µg/mL (≈ 5.88 µM)

Compound: O=c1[nH]c2c(Br)csc2c(O)c1-c1ccc(Cl)cc1
- MIC90 [17]: > 64 µg/mL

Compound: COc1ccc(-c2c(O)c3scc(Br)c3[nH]c2=O)cc1
- MIC90 [17]: 16 µg/mL (≈ 45.4 µM)

Compound: CC(=O)Oc1c(-c2ccccc2)c(=O)n(C(C)=O)c2c(Br)csc12
- MIC90 [17]: 4 µg/mL (≈ 9.85 µM)

Compound: O=c1[nH]c2c(Br)csc2c(O)c1-c1cccc(Oc2ccccc2)c1
- MIC90 [17]: 32 µg/mL (≈ 77.2 µM)

Compound: O=c1[nH]c2c(Br)csc2c(O)c1-c1ccc(Br)cc1
- MIC90 [17]: 16 µg/mL (≈ 39.9 µM)

Compound: NNC(=O)c1ccncc1 [ISONIAZID]
- MIC [11]: 0.03 µg/mL (≈ 0.219 µM)
- MIC50 [22]: 0.33 µM (≈ 0.0453 µg/mL)

Compound: O=c1[nH]c2c(Br)csc2c(O)c1-c1ccc(Cl)cc1F
- MIC90 [17]: 16 µg/mL (≈ 42.7 µM)

Compound: N#Cc1cccc(-c2c(O)c3scc(Br)c3[nH]c2=O)c1
- MIC90 [17]: > 64 µg/mL
